{"source": "patent US20150051246A1", "about": "(priority 2013, published 2015)", "key": {"[1]": {"tested_on": "male Wistar rats", "assay": "Object recognition task (ORT), scopolamine induced memory deficit", "type": "in vivo", "method": "Memory acquisition processes are investigated using the object recognition test (ORT).\nTwenty four 3-4 month old male Wistar rats (Charles River, Sulzfeld, Germany) were used for the study. All animals were housed individually in standard green line Tecniplast IVC cages on stardust bedding. The animals were housed on a reversed 12/12 h light/dark cycle (lights on from 07:00 pm to 07:00 am) and had free access to food and water. The rats were housed and tested in the same room. A radio, playing softly, provided background noise in the room. All testing was performed between 09:00 am and 06:00 pm.\nDrugs were prepared daily, except as indicated otherwise. Roflumilast (Takeda, Konstanz, Germany, MW 403.21) was dissolved in 98% methylcellulose solution (0.5% methylcellulose) and 2% Tween 80. Roflumilast in doses of 0 (vehicle), 0.0001, 0.0003, 0.001, 0.003, 0.01 and 0.03 mg/kg was administered intraperitonally (ip, injection volume 1 ml/kg). […] All compounds were administered 30 min before T1.\nThe testing order of conditions was determined randomly. The experimenter was blind of testing protocol. A within design was used and all treatment conditions were balanced over rats. The ORT was performed as described elsewhere (Ennaceur and Delaceur, 1988, Behav Brain Res, Vol 31, pp 47-59; Akkerman et al; 2012, Behav Brain Res, Vol 232, pp 335-347). The apparatus consisted of a circular arena, 83 cm in diameter. The back half of the 40 cm high wall was made of grey PVC and the front was made of transparent PVC. Fluorescent red tubes and a light bulb provided a constant illumination of about 20 lux on the floor of the apparatus. The light intensity was equal in the different parts of the apparatus.\nTwo objects were placed in symmetrical positions at the mid-line between the gray and transparent halves of the arena, about ten centimeters away from wall. Four different sets of objects were available: 1) a standard 1 L brown transparent glass bottle (diameter 10 cm, height 22 cm) filled with water, 2) a metal cube (10.0×5.0×7.5 cm) with two holes (diameter 1.9 cm), 3) a cone consisting of a gray PVC base (maximal diameter 18 cm) with a collar on top made of brass (total height 16 cm), and 4) an aluminum cube with a tapering top (13.0×8.0×8.0 cm). Objects were presented to the animals in a balanced manner to avoid object or place biases. Rats were unable to displace the objects.\nA test session comprised two trials, each with durations of 3 min. During the learning trial (T1) the apparatus contains two identical objects (object a1 and a2). Rats were always introduced into the apparatus with their nose towards the transparent wall segment (i.e. facing outwards to the front of the arena). Subsequently, rats were put back in its home cage for a 1 h interval. After the retention interval, rats were put back into the arena for the […] (T2). In T2, the two objects from T1 were replaced by one identical copy (a3) and a different novel object (b). The times spent in exploring each object during T1 and T2 were recorded manually on a personal computer.\nExploration was defined in the following manner: directing the nose to the object at a distance of no more than 2 cm and/or touching the object with the nose. Sitting on the object was not considered as exploratory behavior. In order to avoid the presence of olfactory cues, the objects were thoroughly cleaned with a 70% ethanol solution before each trial.\nPrior to compound testing, the animals were handled for 5 min on 2 consecutive days and allowed to explore the ORT arena, also for 5 min. Subsequently, the animals were accustomed to the complete ORT testing procedure without receiving any injection.\nThe readout parameters of the object recognition task are the times that rats spent on exploring each object during T1 and T2. The exploration time (in seconds) of each object during T1 are presented as “a1” and “a2”."}, "[2]": {"tested_on": "healthy adults", "assay": "Verbal Learning Task (VLT) in healthy adults, 18 to 35 years", "type": "in vivo, human", "source_text": "The study utilized Verbal Learning Task (VLT) to analyze the increased number of words remembered following roflumilast administration. The VLT consisted of displaying 30 monosyllable words on a computer screen for a period of 60 seconds. Immediately after the presentation of the words on the computer screen subjects were asked to report as many words as they could recall by memory. This process (presentation and recall) was repeated further two times (VLT, immediate recall, 3 trials). In addition, 45 min and 24 h after the last presentation, subjects were again asked to report as many words as they could recall by memory (VLT, delayed recall 45 min and 24 h). The set of three recall trials was conducted 60 minutes following administration of the roflumilast therapy\nStatistical Data Analyses Human data was analyzed using IBM SPSS Statistics version 20. General Linear Models for repeated measures were applied with the placebo condition included as contrast. Statistical outcomes for Tests of Within-Subjects Effects and Tests of Within-Subjects Contrasts were regarded for immediate and delayed free recall scores and for the summed immediate recall score (i.e. immediate 1+immediate 2+immediate 3). The factor Treatment (4 levels; placebo, roflumilast 100 mcg, roflumilast 300 mcg and roflumilast 1000 mcg) was included as a within subjects factor. For the analysis of the EEG data, the factor Channel (5 levels; Fz, FCz, Cz, CPz, and Pz) was included as a second within subjects factor. Peak and latency values of three memory related ERP's were analysed; i.e. P300, N400 and P600. In case of significant findings (p<0.05) post-hoc t-tests were performed to reveal which of the five midline electrodes contributed to the effect"}}, "data": [{"compound": "O=C(Nc1c(Cl)cncc1Cl)c1ccc(OC(F)F)c(OCC2CC2)c1", "note": "[roflumilast, N-(3,5-dichloropyridin-4-yl)-3-cyclopropylmethoxy-4-difluoromethoxybenzamide]", "values": [{"measurement": "effect on memory performance (in words)", "setting": "[1]; 0.0001 mg/kg ip, scopolamine deficit", "result": "no effect on memory performance"}, {"measurement": "effect on memory performance (in words)", "setting": "[1]; 0.0003 mg/kg and 0.001 mg/kg, scopolamine deficit", "result": "intermediate memory improvement"}, {"measurement": "effect on memory function (in words)", "setting": "[1]; doses of 0.003 mg/kg and higher, scopolamine deficit", "result": "fully restore memory function"}, {"measurement": "d2", "setting": "[1]; rat, in vivo", "result": 0.34}, {"measurement": "d2", "setting": "[1]; roflumilast 0.0001 mg/kg ip + scopolamine 0.1 mg/kg, 1 h retention", "result": 0.05}, {"measurement": "d2", "setting": "[1]; roflumilast 0.0003 mg/kg ip + scopolamine 0.1 mg/kg, 1 h retention", "result": 0.16}, {"measurement": "d2", "setting": "[1]; roflumilast 0.001 mg/kg ip + scopolamine 0.1 mg/kg, 1 h retention", "result": 0.27}, {"measurement": "d2", "setting": "[1]; roflumilast 0.003 mg/kg ip + scopolamine 0.1 mg/kg, 1 h retention", "result": 0.43}, {"measurement": "d2", "setting": "[1]; roflumilast 0.03 mg/kg ip + scopolamine 0.1 mg/kg, 1 h retention", "result": 0.30}, {"measurement": "d2", "setting": "[1]; scopolamine 0.1 mg/kg + roflumilast 0.0001 mg/kg ip, rof + dpz study", "result": 0.04}, {"measurement": "effect on memory function (in words)", "setting": "[1]; single ip dose 0.003 mg/kg, scopolamine deficit", "result": "fully restore spatial memory function"}, {"measurement": "effect on memory function (in words)", "setting": "[1]; single ip doses 0.01, 0.03, 0.001 and 0.0003 mg/kg", "result": "increasingly less efficacy"}, {"measurement": "number of correct words recalled after 3rd trial (in words)", "setting": "[2]; 100 mcg", "result": "significant increase in the number of correct words recalled"}, {"measurement": "placebo-corrected fold-improvement", "setting": "[2]; 100 mcg, 3rd trial, healthy volunteer study", "result": 1.12}, {"measurement": "number of words on the 3rd trial", "setting": "[2]; 100 mcg, young volunteers", "result": 23.7, "unit": "words"}, {"measurement": "number of correct words recalled (in words)", "setting": "[2]; 300 mcg and 1000 mcg, FIG. 2", "result": "some effect"}, {"measurement": "improvement in number of correct words recalled, average", "setting": "[2]; single oral dose 100 mcg, after the third trial", "result": 2.5, "unit": "words"}]}]}
